Assay results from patent US5968910A, “Compositions containing two or three inhibitors of different HIV reverse transcriptases” (priority 1994, dated 1999).

System: HIV-1
Assay: Breakthrough of mutant HIV-1 strains in CEM cell cultures, single drugs and double/triple combinations
Format: cell-based
Protocol: The culture medium consisted of RPMI 1640 containing 10% fetal bovine serum, 2 mM L-glutamine, and 0.075% NaHCO3. The multiplicity of the initial infection was ~1000 times the CCID50 (50% cell culture infective dose). Passages were performed every 3 to 4 days by adding 0.5 to 1.0 ml of the infected culture supernatant to 5 ml of a suspension containing 4×10^5 uninfected CEM cells per ml. Syncytium formation was used as a parameter of virus breakthrough in the cell cultures. In the drug combination experiments, the compounds were combined at the same initial concentrations as used for the two lowest concentrations in the single-drug experiments.
Compound IV, BHAP and TSAO-m^3 T were added to HIV-1-infected CEM cell cultures at 0.04, 0.10 and 0.25 ug/ml (Compound IV and BHAP) or 1.0, 2.5 and 5.0 μg/ml (TSAO-m^3 T). In addition, various double- and triple-drug combinations of Compound IV, BHAP and TSAO-m^3 T were performed, combining these inhibitors at their lowest (0.04 μg/ml) or intermediary (0.1 μg/ml) concentration as used in the single-drug experiments.

Compound: Cc1cn([C@@H]2O[C@H](CO[Si](C)(C)C(C)(C)C)[C@@]3(OS(=O)(=O)C=C3N)[C@H]2O[Si](C)(C)C(C)(C)C)c(=O)n(C)c1=O [TSAO-m^3 T]
- HIV-1-induced syncytium formation in CEM cells (single drug 1.0 μg/ml, day 4 post infection): 0 percentage of control
- HIV-1-induced syncytium formation in CEM cells (single drug 1.0 μg/ml, day 7 post infection): 0 percentage of control
- HIV-1-induced syncytium formation in CEM cells (single drug 1.0 μg/ml, day 11 post infection): 0 percentage of control
- HIV-1-induced syncytium formation in CEM cells (single drug 1.0 μg/ml, day 14 post infection): 12.5 percentage of control
- HIV-1-induced syncytium formation in CEM cells (single drug 1.0 μg/ml, day 18 post infection): 75 percentage of control
- HIV-1-induced syncytium formation in CEM cells (single drug 1.0 μg/ml, day 21 post infection): 100 percentage of control
- HIV-1-induced syncytium formation in CEM cells (single drug 1.0 μg/ml, day 25 post infection): 100 percentage of control
- HIV-1-induced syncytium formation in CEM cells (single drug 1.0 μg/ml, day 28 post infection): 100 percentage of control
- HIV-1-induced syncytium formation in CEM cells (single drug 1.0 μg/ml, day 32 post infection): 100 percentage of control
- HIV-1-induced syncytium formation in CEM cells (single drug 1.0 μg/ml, day 35 post infection): 100 percentage of control
- HIV-1-induced syncytium formation in CEM cells (single drug 1.0 μg/ml, day 39 post infection): 100 percentage of control
- HIV-1-induced syncytium formation in CEM cells (single drug 1.0 μg/ml, day 42 post infection): 100 percentage of control
- HIV-1-induced syncytium formation in CEM cells (single drug 1.0 μg/ml, day 46 post infection): 100 percentage of control
- HIV-1-induced syncytium formation in CEM cells (single drug 1.0 μg/ml, day 49 post infection): 100 percentage of control
- HIV-1-induced syncytium formation in CEM cells (single drug 1.0 μg/ml, day 53 post infection): 100 percentage of control
- HIV-1-induced syncytium formation in CEM cells (single drug 1.0 μg/ml, day 56 post infection): 100 percentage of control
- HIV-1-induced syncytium formation in CEM cells (single drug 1.0 μg/ml, day 60 post infection): 100 percentage of control
- HIV-1-induced syncytium formation in CEM cells (single drug 1.0 μg/ml, day 64 post infection): 100 percentage of control
- HIV-1-induced syncytium formation in CEM cells (single drug 1.0 μg/ml, day 67 post infection): 100 percentage of control
- HIV-1-induced syncytium formation in CEM cells (single drug 1.0 μg/ml, day 71 post infection): 100 percentage of control
- HIV-1-induced syncytium formation in CEM cells (single drug 1.0 μg/ml, day 74 post infection): 100 percentage of control
- HIV-1-induced syncytium formation in CEM cells (single drug 1.0 μg/ml, day 77 post infection): 100 percentage of control
- HIV-1-induced syncytium formation in CEM cells (single drug 2.5 μg/ml, day 4 post infection): 0 percentage of control
- HIV-1-induced syncytium formation in CEM cells (single drug 2.5 μg/ml, day 7 post infection): 0 percentage of control
- HIV-1-induced syncytium formation in CEM cells (single drug 2.5 μg/ml, day 11 post infection): 0 percentage of control
- HIV-1-induced syncytium formation in CEM cells (single drug 2.5 μg/ml, day 14 post infection): 12.5 percentage of control
- HIV-1-induced syncytium formation in CEM cells (single drug 2.5 μg/ml, day 18 post infection): 75 percentage of control
- HIV-1-induced syncytium formation in CEM cells (single drug 2.5 μg/ml, day 21 post infection): 100 percentage of control
- HIV-1-induced syncytium formation in CEM cells (single drug 2.5 μg/ml, day 25 post infection): 100 percentage of control
- HIV-1-induced syncytium formation in CEM cells (single drug 2.5 μg/ml, day 28 post infection): 100 percentage of control
- HIV-1-induced syncytium formation in CEM cells (single drug 2.5 μg/ml, day 32 post infection): 100 percentage of control
- HIV-1-induced syncytium formation in CEM cells (single drug 2.5 μg/ml, day 35 post infection): 100 percentage of control
- HIV-1-induced syncytium formation in CEM cells (single drug 2.5 μg/ml, day 39 post infection): 100 percentage of control
- HIV-1-induced syncytium formation in CEM cells (single drug 2.5 μg/ml, day 42 post infection): 100 percentage of control
- HIV-1-induced syncytium formation in CEM cells (single drug 2.5 μg/ml, day 46 post infection): 100 percentage of control
- HIV-1-induced syncytium formation in CEM cells (single drug 2.5 μg/ml, day 49 post infection): 100 percentage of control
- HIV-1-induced syncytium formation in CEM cells (single drug 2.5 μg/ml, day 53 post infection): 100 percentage of control
- HIV-1-induced syncytium formation in CEM cells (single drug 2.5 μg/ml, day 56 post infection): 100 percentage of control
- HIV-1-induced syncytium formation in CEM cells (single drug 2.5 μg/ml, day 60 post infection): 100 percentage of control
- HIV-1-induced syncytium formation in CEM cells (single drug 2.5 μg/ml, day 64 post infection): 100 percentage of control
- HIV-1-induced syncytium formation in CEM cells (single drug 2.5 μg/ml, day 67 post infection): 100 percentage of control
- HIV-1-induced syncytium formation in CEM cells (single drug 2.5 μg/ml, day 71 post infection): 100 percentage of control
- HIV-1-induced syncytium formation in CEM cells (single drug 2.5 μg/ml, day 74 post infection): 100 percentage of control
- HIV-1-induced syncytium formation in CEM cells (single drug 2.5 μg/ml, day 77 post infection): 100 percentage of control
- HIV-1-induced syncytium formation in CEM cells (single drug 5.0 μg/ml, day 4 post infection): 0 percentage of control
- HIV-1-induced syncytium formation in CEM cells (single drug 5.0 μg/ml, day 7 post infection): 0 percentage of control
- HIV-1-induced syncytium formation in CEM cells (single drug 5.0 μg/ml, day 11 post infection): 0 percentage of control
- HIV-1-induced syncytium formation in CEM cells (single drug 5.0 μg/ml, day 14 post infection): 12.5 percentage of control
- HIV-1-induced syncytium formation in CEM cells (single drug 5.0 μg/ml, day 18 post infection): 75 percentage of control
- HIV-1-induced syncytium formation in CEM cells (single drug 5.0 μg/ml, day 21 post infection): 100 percentage of control
- HIV-1-induced syncytium formation in CEM cells (single drug 5.0 μg/ml, day 25 post infection): 100 percentage of control
- HIV-1-induced syncytium formation in CEM cells (single drug 5.0 μg/ml, day 28 post infection): 100 percentage of control
- HIV-1-induced syncytium formation in CEM cells (single drug 5.0 μg/ml, day 32 post infection): 100 percentage of control
- HIV-1-induced syncytium formation in CEM cells (single drug 5.0 μg/ml, day 35 post infection): 100 percentage of control
- HIV-1-induced syncytium formation in CEM cells (single drug 5.0 μg/ml, day 39 post infection): 100 percentage of control
- HIV-1-induced syncytium formation in CEM cells (single drug 5.0 μg/ml, day 42 post infection): 100 percentage of control
- HIV-1-induced syncytium formation in CEM cells (single drug 5.0 μg/ml, day 46 post infection): 100 percentage of control
- HIV-1-induced syncytium formation in CEM cells (single drug 5.0 μg/ml, day 49 post infection): 100 percentage of control
- HIV-1-induced syncytium formation in CEM cells (single drug 5.0 μg/ml, day 53 post infection): 100 percentage of control
- HIV-1-induced syncytium formation in CEM cells (single drug 5.0 μg/ml, day 56 post infection): 100 percentage of control
- HIV-1-induced syncytium formation in CEM cells (single drug 5.0 μg/ml, day 60 post infection): 100 percentage of control
- HIV-1-induced syncytium formation in CEM cells (single drug 5.0 μg/ml, day 64 post infection): 100 percentage of control
- HIV-1-induced syncytium formation in CEM cells (single drug 5.0 μg/ml, day 67 post infection): 100 percentage of control
- HIV-1-induced syncytium formation in CEM cells (single drug 5.0 μg/ml, day 71 post infection): 100 percentage of control
- HIV-1-induced syncytium formation in CEM cells (single drug 5.0 μg/ml, day 74 post infection): 100 percentage of control
- HIV-1-induced syncytium formation in CEM cells (single drug 5.0 μg/ml, day 77 post infection): 100 percentage of control
- virus breakthrough delayed till day (single drug, higher concentrations): 14 days
